Measurements: paper PMC7113773 (Antiviral Research, 2014)
Where a name gives a salt, the structure may show the parent alone. Read-outs that look alike come from different tables or passages of the source.

Key:
[1] = test system: A/Puerto Rico/8/34 (H1N1; PR8); test: organism not typed; assay type: cell-based, influenza A virus; conditions: for EC50: read-out: EC50 for influenza virus A/Puerto Rico/8/34
A/Hong Kong/8/68 (H3N2) = test: organism not typed; assay type: cell-based, influenza A virus; conditions: for EC50: read-out: EC50 for influenza virus A/Hong Kong/8/68
[2] = test system: pore-forming glycoprotein perforin; conditions: previous study, ref Lena et al., 2008; cited from earlier work
in vitro = conditions: dog
B/Lee/40 = assay type: cell-based, influenza B virus; conditions: for EC50: read-out: EC50 for influenza virus B/Lee/40
[3] = test system: PR8 virus NP and HA protein; assay type: cell-based, influenza A virus; conditions: 11, 33 and 100 μM, 24 h at 35 °C
MDCK cells = conditions: for CC50: read-out: CC50 for MDCK cells, mock-infected MDCK cells, day 3, MTT

SMILES	EC50 ([1]; MDCK, 72 h)	EC50 (A/Hong Kong/8/68 (H3N2); MDCK, 72 h)	CC50 (in vitro)	further results
Cc1cc2c(c(=S)[nH]1)C(=O)O/C2=C\c1csc2ccccc12 [Compound 15f, (Z)-1-(Benzo[b]thiophen-3-ylmethylene)-6-methyl-4-thioxo-4,5-dihydrofuro[3,4-c]pyridin-3(1H)-one]	26.1 ± 6 µM	28.8 ± 6.2 µM	> 900 µM	inhibitory effect on cell lysis induced by perforin [2]: active
O=C1O/C(=C\c2cccs2)c2cc(-c3ccccc3)[nH]c(=S)c21 [Compound 15r, (Z)-6-Phenyl-1-(thiophen-2-ylmethylene)-4-thioxo-4,5-dihydrofuro[3,4-c]pyridin-3(1H)-one]	28.9 ± 12.6 µM	15.1 ± 3.8 µM	> 900 µM	–
Cc1cc2c(c(=S)[nH]1)C(=O)O/C2=C\c1sccc1C [Compound 15s, (Z)-6-Methyl-1-((3-methylthiophen-2-yl)methylene)-4-thioxo-4,5-dihydrofuro[3,4-c]pyridin-3(1H)-one]	17.6 µM	12.7 µM	> 900 µM	S.I. (selectivity index, CC50/EC50), A/Puerto Rico/8/34 [1]: 17.6 ± 11.0 (>51.1); S.I. (selectivity index, CC50/EC50), A/Hong Kong/8/68 (A/Hong Kong/8/68 (H3N2)): 12.7 ± 8.2 (>70.9); S.I. (selectivity index, CC50/EC50), B/Lee/40 (B/Lee/40): 14.0 ± 7.4 (>64.3)
Cc1cc2c(c(=S)n1C)C(=O)O/C2=C\c1cc2cc(F)ccc2[nH]1 [Compound 15c, (Z)-1-((5-Fluoro-1H-indol-2-yl)methylene)-5,6-dimethyl-4-thioxo-4,5-dihydrofuro[3,4-c]pyridin-3(1H)-one]	> 100 µM	> 100 µM	> 900 µM	–
NC(=O)c1ncn([C@@H]2O[C@H](CO)[C@@H](O)[C@H]2O)n1 [Ribavirin, ribavirin, reference compound]	18.8 ± 4.3 µM	20.2 ± 2.4 µM	–	–
CCc1ccc(/C=C2\OC(=O)c3c2cc(C)[nH]c3=S)s1 [Compound 15u, (Z)-1-((5-Ethylthiophen-2-yl)methylene)-6-methyl-4-thioxo-4,5-dihydrofuro[3,4-c]pyridin-3(1H)-one]	31.7 ± 21.7 µM	32.6 ± 10.2 µM	> 900 µM	–
Cc1cc2c(c(=S)[nH]1)C(=O)O/C2=C\c1ccsc1 [Compound 15j, (Z)-6-Methyl-1-(thiophen-3-ylmethylene)-4-thioxo-4,5-dihydrofuro[3,4-c]pyridi n-3(1H)-one]	5 µM	6.2 µM	> 900 µM	S.I. (selectivity index, CC50/EC50), A/Puerto Rico/8/34 [1]: 5.0 ± 1.0 (>180.0); S.I. (selectivity index, CC50/EC50), A/Hong Kong/8/68 (A/Hong Kong/8/68 (H3N2)): 6.2 ± 3.1 (>145.2); S.I. (selectivity index, CC50/EC50), B/Lee/40 (B/Lee/40): 5.9 ± 2.0 (>152.5); viral protein level (NP, HA) in cells [3]: Reduction of the influenza viral protein level; toxicity to MDCK cells (MDCK cells; at 900 μM, uninfected MDCK cells): no toxicity; inhibitory effect on cell lysis induced by perforin [2]: none
O=C1O/C(=C\c2ccsc2)c2cc(-c3ccccc3)[nH]c(=S)c21 [Compound 15l, (Z)-6-Penyl-1-(thiophen-3-ylmethylene)-4-thioxo-4,5-dihydrofuro[3,4-c]pyridin-3(1H)-one]	–	–	–	EC50 [1]: > 100 µM; EC50 (A/Hong Kong/8/68 (H3N2)): 27.1 ± 5.8 µM; EC50 (B/Lee/40): > 100 µM; CC50 (MDCK cells): > 900 µM
Cc1cc2c(c(=S)[nH]1)C(=O)O/C2=C\c1cc(Br)cs1 [Compound 15v, (Z)-1-((4-Bromothiophen-2-yl)methylene)-6-methyl-4-thioxo-4,5-dihydrofuro[3,4-c]pyridin-3(1H)-one]	63.7 ± 36 µM	47.1 ± 18.7 µM	> 900 µM	–
Cc1cc2c(c(=O)[nH]1)C(=O)O/C2=C\c1ccoc1 [Compound 15n, (Z)-1-(Furan-3-ylmethylene)-6-methylfuro[3,4-c]pyridine-3,4(1H,5H)-dione]	> 61.9 µM	> 61.9 µM	61.9 ± 10.7 µM	–
Cc1cc2c(c(=S)[nH]1)C(=O)O/C2=C\c1c[nH]c2ccccc12 [Compound 15e, (Z)-1-((1H-Indol-3-yl)methylene)-6-methyl-4-thioxo-4,5-dihydrofuro[3,4-c]pyridi n-3(1H)-one]	> 100 µM	> 100 µM	> 900 µM	inhibitory effect on cell lysis induced by perforin [2]: inactive
NC12CC3CC(CC(C3)C1)C2 [Amantadine hydrochloride, reference compound]	> 100 µM	2.8 ± 1.7 µM	> 100 µM	–
Cc1ccsc1/C=C1\OC(=O)c2c1cc(C)n(C)c2=S [Compound 15x, (Z)-5,6-Dimethyl-1-((3-methylthiophen-2-yl)methylene)-4-thioxo-4,5-dihydrofuro[3,4-c]pyridin-3(1H)-one]	12.1 µM	11.7 µM	> 900 µM	S.I. (selectivity index, CC50/EC50), A/Puerto Rico/8/34 [1]: 12.1 ± 9.5 (>74.4); S.I. (selectivity index, CC50/EC50), A/Hong Kong/8/68 (A/Hong Kong/8/68 (H3N2)): 11.7 ± 2.7 (>76.9); S.I. (selectivity index, CC50/EC50), B/Lee/40 (B/Lee/40): 8.0 ± 3.6 (>112.5)
Cc1cc2c(c(=S)[nH]1)C(=O)O/C2=C\c1sc2ccccc2c1C [Compound 15h, (Z)-6-Methyl-1-((3-methylbenzo[b]thiophen-2-yl)methylene)-4-thioxo-4,5-dihydrofuro[3,4-c]pyridin-3(1H)-one]	> 100 µM	> 100 µM	> 900 µM	–
Cc1cc2c(c(=O)[nH]1)C(=O)O/C2=C\c1ccsc1 [Compound 15k, (Z)-6-Methyl-1-(thiophen-3-ylmethylene)furo[3,4-c]pyridine-3,4(1H,5H)-dione]	> 19.8 µM	> 19.8 µM	19.8 ± 8.2 µM	–
Cc1cc2c(c(=S)[nH]1)C(=O)O/C2=C\c1ccc(Br)s1 [Compound 15w, (Z)-1-((5-Bromothiophen-2-yl)methylene)-6-methyl-4-thioxo-4,5-dihydrofuro[3,4-c]pyridin-3(1H)-one]	> 100 µM	> 100 µM	> 900 µM	–
Cc1c(/C=C2\OC(=O)c3c2cc(C)n(C)c3=S)sc2ccccc12 [Compound 15i, (Z)-5,6-Dimethyl-1-((3-methylbenzo[b]thiophen-2-yl)methylene)-4-thioxo-4,5-dihydrofuro[3,4-c]pyridin-3(1H)-one]	> 100 µM	> 100 µM	> 900 µM	–
O=C1O/C(=C\c2c[nH]c3ccc(F)cc23)c2cc(-c3ccccc3)[nH]c(=S)c21 [Compound 15d, (Z)-1-((5-Fluoro-1H-indol-3-yl)methylene)-6-phenyl-4-thioxo-4,5-dihydrofuro[3,4-c]pyridin-3(1H)-one]	63.8 ± 25.2 µM	32.5 ± 13.3 µM	> 900 µM	–
Cc1cc2c(c(=S)[nH]1)C(=O)O/C2=C\c1ccoc1 [Compound 15m, (Z)-1-(Fran-3-ylmethylene)-6-methyl-4-thioxo-4,5-dihydrofuro[3,4-c]pyridin-3(1H)-one]	–	–	–	EC50 [1]: 21.4 ± 12.6 µM; EC50 (A/Hong Kong/8/68 (H3N2)): 34.1 ± 10 µM; EC50 (B/Lee/40): 16.3 ± 8.5 µM; CC50 (MDCK cells): > 900 µM; inhibitory effect on cell lysis induced by perforin [2]: none
Cc1cc2c(c(=S)[nH]1)C(=O)O/C2=C\c1ccc(C)s1 [Compound 15t, (Z)-6-Methyl-1-((5-methylthiophen-2-yl)methylene)-4-thioxo-4,5-dihydrofuro[3,4-c]pyridin-3(1H)-one]	8 µM	12.2 µM	> 900 µM	S.I. (selectivity index, CC50/EC50), A/Puerto Rico/8/34 [1]: 8.0 ± 3.6 (>112.5); S.I. (selectivity index, CC50/EC50), A/Hong Kong/8/68 (A/Hong Kong/8/68 (H3N2)): 12.2 ± 2.9 (>73.8); S.I. (selectivity index, CC50/EC50), B/Lee/40 (B/Lee/40): 9.6 ± 3.5 (>93.8); inhibitory effect on cell lysis induced by perforin [2]: active
Cc1cc2c(c(=O)[nH]1)C(=O)O/C2=C\c1c[nH]c2ccc(F)cc12 [Compound 15b, (Z)-1-((5-Fluoro-1H-indol-3-yl)methylene)-6-methylfuro[3,4-c]pyridine-3,4(1H,5 H)-dione]	22.5 ± 10.8 µM	26.8 ± 16.2 µM	> 900 µM	–
